Assay [1] deals with T1, EPHA2 kinase domain (D596-G900) (Homo sapiens, UniProt P29317).
T1 sequence (P29317 596-900): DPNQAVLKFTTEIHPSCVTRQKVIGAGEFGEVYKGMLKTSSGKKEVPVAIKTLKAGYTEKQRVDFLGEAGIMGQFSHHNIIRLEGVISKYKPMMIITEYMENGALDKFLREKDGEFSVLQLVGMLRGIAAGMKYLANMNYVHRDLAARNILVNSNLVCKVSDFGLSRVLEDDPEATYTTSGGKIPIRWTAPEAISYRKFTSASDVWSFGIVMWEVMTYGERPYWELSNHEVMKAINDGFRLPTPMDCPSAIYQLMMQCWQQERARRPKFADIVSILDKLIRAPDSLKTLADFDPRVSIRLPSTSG
Briefly: Microscale thermophoresis. It is filed as binding. The note with it: read-out: KD MST, 25 °C, 5% DMSO, duplicates. (Microscale thermophoresis detects binding through changes in fluorescence in a small temperature gradient.)

Assay [2] deals with human colon carcinoma cells. The following applies: panel of cell lines; cited from earlier work.
The target in assay [3] is T1, EPHA2 kinase domain (D596-G900). The following applies: read-out: KD MST, reported previously ref 18; cited from earlier work.
Another assay concerns human CRC. The note with it: cited from earlier work.

Usually Kd stands for the concentration at which binding is half-saturated.

Read-outs that look alike come from different tables or passages of the source.

With `Cc1ccc(NC(=O)c2cccc(C(F)(F)F)c2)cc1Nc1nc(-c2cccnc2)nc2c1cnn2C` [Compound 7], the Kd in assay [1] stood at 10 nM.

On to `COc1cccc(NC(=O)c2ccc(C)c(Nc3nc(-c4cccnc4)nc4c3cnn4C)c2)c1` [Compound 14], for which the equilibrium dissociation constant (Kd) in assay [1] was found to be 2 nM. For `Cc1ccc(C(=O)Nc2cccc(C(F)(F)F)c2)cc1Nc1nc(-c2cccnc2)nc2c1cnn2C` [NVP, NVP-BHG712], in assay [2], the “effect on proliferation of human colon carcinoma cells” value is on record as “reduce the proliferation”. As for `Cc1ccc(C(=O)Nc2cccc(C(F)(F)F)c2)cc1Nc1nc(-c2cccnc2)nc2nn(C)cc12` [NVPiso], in assay [3], the Kd was 73 nM. Also, the “effect on proliferation of human colon carcinoma cells” value in assay [2] is “reduce the proliferation”. Moreover, the “effect on growth of human CRC in mice” value in the assay on human CRC was “inhibited the growth of human CRC in mice”.

The values are drawn from paper PMC10133194 (Chemistry (Weinheim an der Bergstrasse, Germany), 2023).
